# In patent US8415505B2, “2-methylene-5-substituted-methylenecyclopentanone derivatives and use thereof” (Shenyang Pharmaceutical University, priority 2008, dated 2013):
# Like-named read-outs stand apart in the source and are kept apart here.
# Assays:
# [1] = test system: Human breast cancer cells T47D; assay: In vitro antitumor activity test (MTT), T47D; type: cell-based; settings: 4 days culture with drug, growth inhibition, read-out: IC50 (μmol/L) T47D
# Procedure: (§1) In Vitro Antitumor Activity Test
# (§2) Cells were taken out carefully from liquid nitrogen (Frozen pipes), and the cell freezing medium was thawed rapidly in water bath at 37° C. in order to rapidly pass the temperature range of 0˜5° C. within which the cell is easily damaged. Cell suspension was sucked with pipette gun and put it into centrifuge tubes under a sterile condition, then centrifuged for 3 min at 1300 r/min. The supernatant was gently discarded, and then added with a fresh medium to pipette and mix the cells. Finally, the cells were transferred into culture flasks and cultured in a carbon dioxide incubator. The medium was changed once after 24 h.
# (§3) Human prostate cancer cells (DU145, PC-3) were cultured in RPMI1640 medium containing 10% fetal bovine serum inactivated by heating, 100 IU/mL penicillin, 100 μg/mL streptomycin and 1 mmol/L L-glutamine. Human breast cancer cells (T47D, MDA-MB231) were cultured in RPMI1640 medium containing 10% fetal bovine serum inactivated by heating, 5 μg/mL insulin, 100 IU/mL penicillin, 100 μg/mL streptomycin, and 1 mmol/L L-glutamine. Human breast cancer cells (MCF-7) were cultured in DMEM culture medium containing 10% fetal bovine serum inactivated by heating, 5 μg/mL insulin, 100 IU/mL penicillin, 100 μg/mL streptomycin and […] L-glutamine. Mouse Lewis lung carcinoma cells (LL/2) and mouse melanoma cells (B16F0) were cultured in DMEM culture medium containing 10% fetal bovine serum inactivated by heating, 4.5 g/L glucose, 1.5 g/L NaHCO3, 100 IU/mL penicillin, 100 μg/mL streptomycin and 4 mmol/L L-glutamine. All of the above cell lines were incubated in 37° C. incubator with 5% carbon dioxide saturated humidity
# (§4) After 2-3 cycles of cell culture and passage after the cell thawing, the cells were stable and ready for the experiment. The flask bottom should be covered with cells in each cell passage.
# (§5) Trypsin solution (0.25%) was applied to digest the cells off the flask bottom when the flask bottom was covered with cells. The digested cell solution was moved to the centrifuge tubes and culture medium was added to stop the digestion; centrifuged for 3 min at 1300 r/min conditions; gently discarded the supernatant, and then added 5 mL medium, pipetted and mixed the cells; added 10 μL of the cell suspension to the cell count plate to count; adjusted the cell concentration to 2×10^4/mL; added 100 μL cell suspension to all wells of the 96 well plate except A1 well which acts as a blank; and placed the 96 well plate in an incubator to culture 24 h and to make sure the cells growing and attached on the wells.
# (§6) First formulated the medicine in 16 mmol/L of DMSO storage solution; then diluted the solution with ethanol to 1.6 mmol/L solution; then further diluted with cell culture medium to 32 μmol/L, 16 μmol/L, 8 μmol/L, 4 μmol/L, 2 μmol/L and 1 μmol/L, and added to 96 well plate; 100 μl drug solution were added to each well, thus the final drug concentrations of cells were 16 μmol/L, 8 μmol/L, 4 μmol/L, 2 μmol/L, 1 μmol/L, and 0.5 μmol/L; 3 parallel wells were set for each concentration and placed the 96 well plate was placed into an incubator to continuously culture for 4 days
# (§7) Added to each well of the 96 well plate with 50 μL of MTT (2 mg/mL); discarded the MTT (tetrazolium) solution after 4 h incubation in an incubator, then added 200 μL of DMSO; shaking the 96 well plate in a magnetic shaker for 10 min to make sure that the reaction product of the living cells and the MTT, i.e. formazan, was fully dissolved; measured the absorbance value (OD) in microplate reader at the selected 570 nm wavelength, and recorded results. Using the OD values of the cells that were not added with drugs as control, the cell growth inhibition ratio at each test concentration was calculated by using the following formula. Herein, the cancer cell growth inhibition is expressed as the half of the growth inhibitory concentration (IG50 Value) (i.e., the tested drug concentration resulting in 50% cell growth inhibition). […]
# [2] = test system: Human breast cancer cells MDA-MB231; assay: In vitro antitumor activity test (MTT), MDA-MB231; type: cell-based; settings: 4 days culture with drug, growth inhibition, read-out: IC50 (μmol/L) MDA-MB231
# Procedure: as §1, §2, §3, §4, §5, §6, §7
# [3] = test system: Human prostate cancer cells DU145; assay: In vitro antitumor activity test (MTT), DU145; type: cell-based; settings: DU-145, 96 h, 4 days culture with drug, growth inhibition, read-out: IC50 (μmol/L) DU145
# Procedure: as §1
# as §2, with “h. […]” for “h.”
# (§8) After 2-3 cycles of cell culture and passage after the cell thawing, the cells were stable and ready for the experiment. […]
# (§9) Added to each well of the 96 well plate with 50 μL of MTT (2 mg/mL); discarded the MTT (tetrazolium) solution after 4 h incubation in an incubator, then added 200 μL of DMSO; shaking the 96 well plate in a magnetic shaker for 10 min to make sure that the reaction product of the living cells and the MTT, i.e. formazan, was fully dissolved; measured the absorbance value (OD) in microplate reader at the selected 570 nm wavelength, and recorded results. […]
# [4] = test system: mouse melanoma cells (B16F0); assay: In vitro antitumor activity test (MTT), B16F0; type: cell-based; settings: B16F0, 96 h, B16FD cells (head), 4 days culture with drug, growth inhibition, read-out: IC50 (μmol/L) B16FD
# Procedure: as §1
# as §2, with “h. […]” for “h.”
# as §8, §9
# [5] = test system: Mouse Lewis lung carcinoma cells (LL/2); assay: In vitro antitumor activity test (MTT), LL/2; type: cell-based; settings: 96 h, LL/2 cells, 4 days culture with drug, growth inhibition, read-out: IC50 (μmol/L) LL/2
# Procedure: as §1
# as §2, with “h. […]” for “h.”
# as §8, §9
# [6] = test system: Human prostate cancer cells PC-3; assay: In vitro antitumor activity test (MTT), PC-3; type: cell-based; settings: 96 h, PC-3 cells, 4 days culture with drug, growth inhibition, read-out: IC50 (μmol/L) PC-3
# Procedure: as §1
# as §2, with “h. […]” for “h.”
# as §8, §9
# [7] = test system: Human breast cancer cells MCF-7; assay: In vitro antitumor activity test (MTT), MCF-7; type: cell-based; settings: MCF7, 96 h, MCF-7 cells, 4 days culture with drug, growth inhibition, read-out: IC50 (μmol/L) MCF-7
# Procedure: as §1
# as §2, with “h. […]” for “h.”
# as §8, §9
# Acute toxicity test = settings: both sexes, mouse, in vivo, ip; Kunming mice, intraperitoneal injection, observed one week after administration, weighted regression method
# Procedure: Animals: healthy Kunming mice, half male and half female, weighed 18-22 g. Animals were provided from Experimental Animal Center of Shenyang Pharmaceutical University. Certificate of Conformity: Real co-Zi Liao No. 033
# Name of tested drugs: Example 13, Example 14
# Drug preparation: Suspension formulated with 0.2% polysorbate 80 (Tween-80). Dosage to subject is expressed as mg/kg.
# Route of administration: Intraperitoneal injection; injection volume was 0.1 ml/10 g, with one time multi-dose administration.
# Test cycle and measurement: Observed one week after the administration; recorded toxic reactions in mice daily during observation, with the death of mice as the main indicator. Half lethal dose (LD50, mg/kg) of the administration of compound after a week can be obtained according to weighted regression method.
"IC50 ([1]; Homo sapiens, 96 h) [µmol/L]","IC50 ([2]; Homo sapiens, MDA-MB-231, 96 h) [µmol/L]",SMILES,other results
3.93,11.6,"C=C1CCC(=Cc2ccccc2OC)C1=O [Example 7, 2-methylene-5-(2-methoxybenzylidene)cyclopentanone]",
> 16,> 16,"C=C1CCC(=CCC(C)C)C1=O [Example 22, 2-methylene-5-(3-methylbutylidene)cyclopentanone]",
1.64,4.96,"C=C1CCC(=Cc2ccc(S(C)(=O)=O)cc2)C1=O [Example 10, 2-methylene-5-(4-methanesulfonylbenzylidene)cyclopentanone]",
> 16,> 16,"C=C1CCC(=Cc2cccc(OC)c2OC)C1=O [Example 15, 2-methylene-5-(2,3-dimethoxybenzylidene)cyclopentanone]",
7.23,> 16,"C=C1CCC(=C(c2ccccc2)c2ccccc2)C1=O [Example 25, 2-methylene-5-diphenylmethylenecyclopentanone]",
> 16,5.96,"C=C1CCC(=Cc2ccc(O)cc2)C1=O [Example 23, 2-methylene-5-(4-hydroxybenzylidene)cyclopentanone]",
5.02,5.54,"C=C1CCC(=Cc2ccccc2O)C1=O [Example 24, 2-methylene-5-(2-hydroxybenzylidene)cyclopentanone]",
2.66,2.57,"C=C1CCC(=Cc2ccc(OC)c(OC)c2)C1=O [Example 17, 2-methylene-5-(3,4-dimethoxybenzylidene)cyclopentanone]",
1.29,4.68,"C=C1CCC(=Cc2ccc(OC)cc2O)C1=O [Example 12, 2-methylene-5-(2-hydroxy-4-methoxybenzylidene)cyclopentanone]",
> 16,7.51,"C=C1CCC(=Cc2ccc(OC)cc2OC)C1=O [Example 16, 2-methylene-5-(2,4-dimethoxybenzylidene)cyclopentanone]",
> 16,> 16,"C=C1CCC(=Cc2ccc(OCCC)cc2)C1=O [Example 9, 2-methylene-5-(4-propoxybenzylidene)cyclopentanone]",
> 16,> 16,"C=C1CCC(=Cc2ccc(OC)cc2)C1=O [Example 2, 2-methylene-5-(4-methoxybenzylidene)-cyclopentanone]",
2.76,7.84,"C=C1CCC(=Cc2cc(OC)c(OC)c(OC)c2)C1=O [Example 21, 2-methylene-5-(3,4,5-trimethoxybenzylidene)cyclopentanone]",
6.37,4.57,"C=C1CCC(=Cc2ccc(OCC)cc2)C1=O [Example 8, 2-methylene-5-(4-ethoxybenzylidene)cyclopentanone]",
,,"C=C1CCC(=C(c2ccc(F)cc2)c2ccc(F)cc2)C1=O [Example 27, 2-methene-5-[bis(4-fluorophenyl)-methylene]cyclopentanone]",IC50 [2]: > 16 µmol/L
2.82,3.44,"C=C1CCC(=Cc2cc(OC)c(O)c(OC)c2)C1=O [Example 19, 2-methylene-5-(3,5-dimethoxy-4-hydroxybenzylidene) cyclopentanone]",
,,"C=C1CCC(=Cc2ccc(N(C)C)cc2)C1=O [Example 11, 2-methylene-5-(4-N,N-dimethylbenzylidene)cyclopentanone]",IC50 [1]: 1.4 µmol/L; IC50 [2]: 8.58 µmol/L
4.36,7.49,"C=C1CCC(=C(c2ccc(C)cc2)c2ccc(C)cc2)C1=O [Example 26, 2-methylene-5-[bis(4-methylphenyl)-methylene]cyclopentanone]",
4.89,6.68,"C=C1CCC(=Cc2ccc3c(c2)OCO3)C1=O [Example 18, 2-methylene-5-(3,4-methylenedioxybenzylidene)cyclopentanone]",
5.31,14.8,"C=C1CCC(=Cc2cc(C(C)(C)C)c(O)c(C(C)(C)C)c2)C1=O [Example 20, 2-methylene-5-[3,5-di(t-butyl)-4-hydroxybenzylidene]-cyclopentanone]",

SMILES,"IC50 ([1]; Homo sapiens, 96 h) [µmol/L]","IC50 ([2]; Homo sapiens, MDA-MB-231, 96 h) [µmol/L]",other results
"C=C1CCC(=Cc2ccc(OC)c(O)c2)C1=O [Example 13, 2-methylene-5-(3-hydroxy-4-methoxybenzylidene)cyclopentanone]",0.64,2.53,IC50 [3]: 2.95 µmol/L; IC50 [4]: 3.42 µmol/L; IC50 [5]: 5.09 µmol/L; IC50 [6]: 2.01 µmol/L; IC50 [7]: 1.21 µmol/L; LD50 at 1 week (Acute toxicity test): 22.4 mg/kg
"C=C1CCC(=Cc2ccc(O)c(OC)c2)C1=O [Example 14, 2-methylene-5-(4-hydroxy-3-methoxybenzylidene)cyclopentanone]",0.98,3.21,IC50 [3]: 2.43 µmol/L; IC50 [4]: 4.4 µmol/L; IC50 [5]: 6.39 µmol/L; IC50 [6]: 1.76 µmol/L; IC50 [7]: 1.05 µmol/L; LD50 at 1 week (Acute toxicity test): 35.2 mg/kg
